Data taken from patent publication US11865103B2, “Methods of treating disorders associated with glycosylation defective proteins” (CASE WESTERN RESERVE UNIVERSITY, priority 2016, dated 2024).

Tested on: hCLRN1^N48K-YFP; clrn1^+/+ larvae
Assay: Larval survival/lethality by TG or ART dose and treatment duration
Assay type: in vivo, zebrafish
Details: TG dosages higher than 1 μM or longer treatment duration
Procedure: Thapsigargin (TG, 1 mg, Sigma-Aldrich, #T9033) stock in 100% DMSO was diluted in E3 medium to make the required final concentration of the drug. Five different concentrations that were earlier reported to induce ER stress and are non-toxic or lower lethal dose (LD50) in the zebrafish (0.1, 0.5, 1.0, 2.5, 5 μM concentrations) were used in this study. A total of 25 larvae per dosage and treatment duration from the genotypes hCLRN1^N48K-YFP; clrn1^+/+ and hCLRN1-YFP; clrn1^+/+, no older than 72 hours post fertilization (hpf) at the start of the experiment, were placed in a well of 12-well uncoated culture plate (BD Falcon, Canaan, CT). […] Unadjusted 1 micron middle section images of four hair bundles per ML1 neuromast of larvae from TG treated and untreated groups were analyzed using Image J software version v. […] Quantification of YFP fluorescence intensity was carried out as described in the previous experiment for unconventional trafficking of hCLRN1^N48K-YFP by hGRASP55 cargos. […]
Arthemisinin (ART, 100 mg, Sigma-Aldrich, #361593) in 100% DMSO was diluted in E3 medium to make the final concentration. […] Quantification of YFP fluorescence intensity was carried out as described in the previous experiment for unconventional trafficking of hCLRN1^N48K-YFP by hGRASP55 cargos. […]

Q: Which Lethality to larvae does the source give for `C/C=C(/C)C(=O)O[C@H]1C(C)=C2[C@H]([C@@H]1OC(=O)CCCCCCC)[C@@](C)(OC(C)=O)C[C@H](OC(=O)CCC)[C@@]1(O)[C@H]2OC(=O)[C@@]1(C)O` [TG, Thapsigargin] here?
A: lethal
